The record followed here is patent publication US10385022B2, “3-amino-pyridines as GPBAR1 agonists” (HOFFMANN-LA ROCHE INC., priority 2011, dated 2019).

This assay deals with human GPBAR1 receptor (Homo sapiens (Human), UniProt Q8TDU6). The assay is described as follows: functional cAMP assay in CHO-dhfr(minus) cells expressing human GPBAR1 receptors. The assay is classed as cell-based. The note with it: CHO-dhfr(minus) cells expressing human GPBAR1, 30 min at 30° C. An outline of the steps: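 CHO-dhfr- cells were transfected with human GPBAR1, and a clone was chosen by cAMP response to lithocholic acid. EC50 values come from the cAMP read-out; specificity was checked in non-transfected CHO cells.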
human GPBAR1 receptor, sequence (Q8TDU6 whole entry): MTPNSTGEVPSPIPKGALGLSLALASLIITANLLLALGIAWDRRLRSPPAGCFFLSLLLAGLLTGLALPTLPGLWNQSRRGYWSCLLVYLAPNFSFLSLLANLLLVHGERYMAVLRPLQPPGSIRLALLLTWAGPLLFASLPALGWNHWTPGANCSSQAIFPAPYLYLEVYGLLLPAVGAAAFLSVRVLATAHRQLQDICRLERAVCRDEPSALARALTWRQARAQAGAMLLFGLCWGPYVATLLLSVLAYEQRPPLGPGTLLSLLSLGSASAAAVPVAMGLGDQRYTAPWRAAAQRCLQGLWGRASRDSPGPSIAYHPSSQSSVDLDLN
For the molecule `CN(C(=O)c1cc(C(F)(F)F)cc(C(F)(F)F)c1)c1cnccc1-c1ccc(F)cc1OCc1ccccc1` [Example 43, N-[4-(2-Benzyloxy-4-fluoro-phenyl)-pyridin-3-yl]-N-methyl-3,5-bis-trifluoromethyl-benzamide], the concentration for a half-maximal effect (EC50) was found to be 2.05 µM.

Take `CN(C(=O)c1cc(C(F)(F)F)cc(C(F)(F)F)c1)c1cnccc1-c1ncccc1F` [Example 68, N-(3-Fluoro-[2,4′]bipyridinyl-3′-yl)-N-methyl-3,5-bis-trifluoromethyl-benzamide]: it took 0.801 µM to reach a half-maximal effect (EC50).

`CC1CCCCN1c1ccncc1N(C)C(=O)c1cc(C(F)(F)F)cc(C(F)(F)F)c1` (stereo not shown) [Example 20, N-Methyl-N-(2-methyl-3,4,5,6-tetrahydro-2H-[1,4′]bipyridinyl-3′-yl)-3,5-bis-trifluoromethyl-benzamide] had an EC50 of 0.143 µM.

As to `Cc1ccccc1-c1ccncc1N(C)C(=O)c1cc(N)cc(C(F)(F)F)c1` [Example 164, 3-amino-N-methyl-N-(4-o-tolylpyridin-3-yl)-5-(trifluoromethyl)benzamide], the EC50 stood at 1.7 µM.

`CS(=O)(=O)c1cc(C(=O)N(CC(N)=O)c2cnccc2-c2ccccc2OC(F)(F)F)cc(C(F)(F)F)c1` [Example 319, N-Carbamoylmethyl-3-methanesulfonyl-N-[4-(2-trifluoromethoxy-phenyl)-pyridin-3-yl]-5-trifluoromethyl-benzamide] registered an EC50 of 3.34 µM.

With `COc1ccc(F)c(-c2ccncc2N(C)C(=O)c2cc(C(F)(F)F)cc(S(C)(=O)=O)c2)c1F` [Example 285, N-[4-(2,6-Difluoro-3-methoxy-phenyl)-pyridin-3-yl]-3-methanesulfonyl-N-methyl-5-trifluoromethyl-benzamide], a half-maximal effect (EC50) was put at 2.9 µM.

`COc1cc(F)ccc1-c1ccncc1N(CC1CCCO1)C(=O)c1cc(C(F)(F)F)cc(S(C)(=O)=O)c1` (single isomer, unassigned; (+)) [Example 232, (+)-N-[4-(4-Fluoro-2-methoxy-phenyl)-pyridin-3-yl]-3-methanesulfonyl-N-[1-(tetrahydro-furan-2-yl)methyl]-5-trifluoromethyl-benzamide] came in with a concentration for a half-maximal effect (EC50) of 0.335 µM.

In the case of `Cc1ccccc1-c1ccncc1N(C)C(=O)c1ccc(F)c(C(F)(F)F)c1` [Example 5, 4-Fluoro-N-methyl-N-(4-o-tolyl-pyridin-3-yl)-5-trifluoromethyl-benzamide], the EC50 came out at 0.112 µM.

`Cc1c(F)cccc1-c1ccncc1N(C)C(=O)c1cc(C(F)(F)F)cc(S(C)(=O)=O)c1` [Example 295, N-[4-(3-Fluoro-2-methyl-phenyl)-pyridin-3-yl]-3-methanesulfonyl-N-methyl-5-trifluoromethyl-benzamide] had an EC50 of 0.445 µM.

In turn, `COc1cc(F)ccc1-c1ccncc1N(C)C(=O)c1cc(SC2CNC2)cc(C(F)(F)F)c1` [Example 275, 3-(Azetidin-3-ylsulfanyl)-N-[4-(4-fluoro-2-methoxy-phenyl)-pyridin-3-yl]-N-methyl-5-trifluoromethyl-benzamide] yielded a half-maximal effective concentration (EC50) of 1.23 µM.

On to `Cc1ccccc1-c1ccncc1N(C)C(=O)c1cccc(C(F)(F)F)c1` [Example 2, N-Methyl-N-(4-o-tolyl-pyridin-3-yl)-3-trifluoromethyl-benzamide], for which a half-maximal effect (EC50) was put at 0.727 µM.

For the molecule `CN(C(=O)c1cc(C(F)(F)F)cc(C(F)(F)F)c1)c1cnccc1-c1ccccc1CC#N` [Example 175, N-[4-(2-Cyanomethyl-phenyl)-pyridin-3-yl]-N-methyl-3,5-bis-trifluoromethyl-benzamide], a half-maximal effect (EC50) was put at 0.571 µM.

`Cc1cc(F)ccc1-c1ccncc1N(C)C(=O)c1cc(Cl)cc(Cl)c1` [Example 24, 3,5-Dichloro-N-[4-(4-fluoro-2-methyl-phenyl)-pyridin-3-yl]-N-methyl-benzamide] came in with an EC50 of 0.146 µM.

As for `COc1cc(F)ccc1-c1cc(C)ncc1N(CC(F)(F)F)C(=O)c1cc(C(F)(F)F)cc(S(C)(=O)=O)c1` [Example 307, N-[4-(4-Fluoro-2-methoxy-phenyl)-6-methyl-pyridin-3-yl]-3-methanesulfonyl-N-(2,2,2-trifluoro-ethyl)-5-trifluoromethyl-benzamide], the EC50 came to 0.3 µM.

Molecule `CN(C(=O)c1cc(C(F)(F)F)cc(C(F)(F)F)c1)c1cnccc1-c1ccc(F)cc1Cl` [Example 67, N-[4-(2-Chloro-4-fluoro-phenyl)-pyridin-3-yl]-N-methyl-3,5-bis-trifluoromethyl-benzamide] gave a 50% effective concentration (EC50) of 0.056 µM.

`COc1ncccc1-c1ccncc1N(CC(F)(F)F)C(=O)c1cc(C(F)(F)F)cc(C(F)(F)F)c1` [Example 135, N-(2-Methoxy-[3,4′]bipyridinyl-3′-yl)-N-(2,2,2-trifluoro-ethyl)-3,5-bis-trifluoromethyl-benzamide] registered a half-maximal effective concentration (EC50) of 0.091 µM.

The molecule `COc1cc(F)ccc1-c1ccncc1N(C)C(=O)c1cc(SCCCCC(=O)O)cc(C(F)(F)F)c1` [Example 243, 5-(3-{[4-(4-Fluoro-2-methoxy-phenyl)-pyridin-3-yl]-methyl-carbamoyl}-5-trifluoromethyl-phenylsulfanyl)-pentanoic acid] gave a half-maximal effective concentration (EC50) of 0.61 µM.

For `COc1cc(F)ccc1-c1cc(C)ncc1N(C)C(=O)c1cc(SCCCCC(=O)NCC(=O)O)cc(C(F)(F)F)c1` [Example 315, [5-(3-{[4-(4-Fluoro-2-methoxy-phenyl)-6-methyl-pyridin-3-yl]-methyl-carbamoyl}-5-trifluoromethyl-phenylsulfanyl)-pentanoylamino]-acetic acid], the concentration giving a half-maximal response (EC50) was 0.451 µM.

The molecule `COc1cc(F)ccc1-c1ccncc1N(CCS(C)(=O)=O)C(=O)c1cc(C(F)(F)F)nc(C(F)(F)F)c1` [Example 162, N-[4-(4-Fluoro-2-methoxy-phenyl)-pyridin-3-yl]-N-(2-methanesulfonyl-ethyl)-2,6-bis-trifluoromethyl-isonicotinamide] showed an EC50 of 0.101 µM.

Take `COc1ncccc1-c1ccncc1N(CC(F)(F)F)C(=O)c1cc(C(F)(F)F)cc(S(C)(=O)=O)c1` [Example 142, 3-Methanesulfonyl-N-(2-methoxy-[3,4′]bipyridinyl-3′-yl)-N-(2,2,2-trifluoro-ethyl)-5-trifluoromethyl-benzamide]: the EC50 was 0.396 µM.

Take `Cc1ccccc1-c1ccncc1N(C)C(=O)c1ccc(C)c(C(F)(F)F)c1` [Example 91, 4,N-Dimethyl-N-(4-o-tolyl-pyridin-3-yl)-3-trifluoromethyl-benzamide]: the concentration for a half-maximal effect (EC50) is 0.152 µM.

As for `Cc1ccccc1-c1ccncc1N(C)C(=O)c1cc(C(F)(F)F)cc(C(F)(F)F)c1` [Example 1, N-Methyl-N-(4-o-tolyl-pyridin-3-yl)-3,5-bis-trifluoromethyl-benzamide], the EC50 came out at 0.022 µM.

`COc1cc(F)ccc1-c1ccncc1N(C)C(=O)c1cc(C(F)(F)F)cc(C(F)(F)F)c1` [Example 38, N-[4-(4-Fluoro-2-methoxy-phenyl)-pyridin-3-yl]-N-methyl-3,5-bis-trifluoromethyl-benzamide] gave a concentration giving a half-maximal response (EC50) of 0.011 µM.

In the case of `Cc1ncccc1-c1ccncc1N(C)C(=O)c1cc(C(F)(F)F)cc(C(F)(F)F)c1` [Example 33, N-Methyl-N-(2-methyl-[3,4′]bipyridinyl-3′-yl)-3,5-bis-trifluoromethyl-benzamide], a half-maximal effect (EC50) was put at 0.349 µM.

In turn, `Cc1ccccc1-c1cc(N2CCN(S(C)(=O)=O)CC2)ncc1N(C)C(=O)c1cc(C(F)(F)F)cc(C(F)(F)F)c1` [Example 17, N-[6-(4-Methanesulfonyl-piperazin-1-yl)-4-o-tolyl-pyridin-3-yl]-N-methyl-3,5-bis-trifluoromethyl-benzamide] had an EC50 of 0.336 µM.
